What was measured:
[1] = test system: nRBC interactions with adherent leukocytes; test: nRBC-leukocyte interactions, brightfield intravital microscopy of TNF-α-inflamed cremasteric venules; format: in vivo, mouse (C57BL/6); details: inhibitor given 120 min after TNF-α: PP2 150 μg/kg, SB203580 100 μg, piceatannol 1 mg; compared to vehicle control (DMSO); FIG. 2f
Protocol: Brightfield intravital microscopy. Brightfield intravital microscopy was performed as previously reported^21,22. For SCD mice, several postcapillary and collecting venules were recorded from 15 min after the surgical preparation (time=0 is surgical section of the cremaster) for 75 minutes (pre-TNF-α), with each venule recorded continuously for at least 2 min. SCD mice were then injected i.p. with 0.5 μg recombinant murine TNF-α (R & D Systems) and then the same venules were videotaped over a period of 90 min (91-180 min), after which venules were recorded again for another 90 min (181-270 min). The role of endothelial selectins was evaluated in identical experiments performed in Selp^−/− or Sele^−/− mice transplanted with BM cells from SCD donor mice, or using antibodies against P- or E-selectin (1 mg/kg) prior to surgery. […] In experiments with non-SCD C57BL/6 mice, TNF-α was administered intrascrotally and images recorded 160-210 min after cytokine injection. […]
Hemodynamic measurements and image analyses for brightfield intravital microscopy. The venular diameter was measured using a video caliper. Centerline RBC velocity was measured for each venule in real time using an optical Doppler velocimeter (Texas A&M, College Station, Tex.). […] Blood flow rate was calculated from the formula: Vmean×π×d^2/4. […]

Balb/c mice [2] = test: Antibody-induced acute lung injury (TRALI model), protein content in BAL fluids; format: in vivo, mouse (Balb/c); details: antibodies 1 mg/kg i.v. or n-acetyl cysteine 150 mg/kg i.v. 5 min before anti-H2d 3.5 mg/kg; BAL 2 h later
Protocol: Antibody-induced acute lung injury. Balb/c male mice (8-12 week-old) were injected i.v. with 3.5 mg/kg of anti-H2d (clone 34-1-2s) or control H2b (clone 28-8-6s) antibodies. After 2 h, BAL was performed on anesthetized mice by 3 washes with 1 ml PBS each using a 18G needle, and the protein content assessed by the bicinchoninic acid method (BCA; Pierce, Rockford, Ill.). In some experiments, mice were pre-treated as follows: rabbit anti-platelet serum (25 μl; i.p. injection; Accurate Chemicals; Westbury, N.Y.) diluted in 200 μl of PBS, 2 h prior anti-H2d treatment; 1 mg/kg i.v. injection of control or anti-P-selectin, E-selectin or anti-αMβ2 antibodies 5 min before anti-H2d; 150 mg/kg i.v. injection of n-acetyl cysteine 5 min before anti-H2d . Platelet and leukocyte counts from blood samples obtained at the end of the experiment were determined using a hematological Coulter® AC-T diff™ l Analyzer (Beckman Coulter, Miami, Fla.). None of these treatments affected circulating leukocyte counts (not shown). In the TRALI experiments involving intravital imaging of the cremasteric microcirculation, TNF-α was injected intrascrotally to allow the recruitment and imaging of inflammatory leukocytes.

Balb/c mice [3] = test: Vascular permeability, FITC-dextran extravasation in cremasteric venules after anti-H2d; format: in vivo, mouse (Balb/c); details: TNF-α-treated mice, pre-treatment with antibodies 1 mg/kg or n-acetyl cysteine 150 mg/kg, imaged 30 min later
Protocol: Vascular permeability. To analyze anti-MHC-I-induced vascular damage, Balb/c mice were intravenously infused with 3.5 mg/kg of anti-MHC-I antibodies (to H2d or control H2b) and 1 mg of FITC-Dextran (70 Kd; Sigma-Aldrich) 210 min after TNF-α-treatment.
In some experiments, mice were pre-treated with 25 μL rabbit anti-platelet serum to deplete platelets, 1 mg/kg of control, anti-E-selectin or anti-αMβ2 antibodies, or 150 mg/kg of n-acetyl cysteine. Random fields containing small venules were imaged 30 min later using the FITC channel under a LumPlanFl 10× objective, NA 0.30 w. Images were masked over a threshold to quantify all FITC-Dextran-associated fluorescence intensity as well as the signal corresponding only to intravascular spaces. The percentage of extravasated FITC-Dextran was finally obtained using the formula: [(Total intensity−Intravascular intensity)/Total intensity]×100.

[4] = test system: ROS-producing adherent leukocytes; test: In vivo detection of ROS-producing adherent leukocytes (dihydroxyrhodamine-123, MFIM); set-up: species or system mouse (Balb/c); details: TNF-α-treated mice; pre-treatment with anti-E-selectin 1 mg/kg or n-acetyl cysteine 150 mg/kg
Protocol: In vivo detection of leukocytes producing reactive oxygen species (ROS). Balb/c mice prepared for MFIM were injected i.v. with 29 nmoles of dihydroxyrhodamine-123 (DHR; Molecular Probes, Eugene, Oreg.). DHR uptaken by leukocytes actively producing ROS converts into fluorescent rhodamine-123 (507/529 nm) which can be detected by a bright punctuated pattern in the FITC channel (FIG. 11). In some experiments, mice were pre-treated with 25 μL rabbit anti-platelet serum to deplete platelets, 1 mg/kg of anti-E-selectin antibody, or 150 mg/kg of n-acetyl cysteine. Images were captured in the brightfield and FITC channels before and after injection of 3.5 mg/kg anti-H2d antibody, and the frequency of ROS-producing cells calculated out of all adherent leukocytes in each venular segment.

Compound | nRBC (normal red blood cell) interactions with leukocytes [1] | lung injury induced by anti-H2d (protein content in BAL fluids) (Balb/c mice [2]) | vascular permeability (FITC-dextran extravasation) after anti-H2d (Balb/c mice [3]) | vascular permeability (FITC-dextran extravasation) after anti-H2d (Balb/c mice [3]; listed as N-acetyl-cysteine) | ROS-producing adherent leukocytes after anti-H2d [4]
CC(C)(C)n1nc(-c2ccc(Cl)cc2)c2c(N)ncnc21 [PP2, 4-amino-5-(4-chlorophenyl)-7-(t-butyl)pyrazolo[3,4-d]pyramidine] | Inhibition of nRBC (normal red blood cell) interactions | – | – | – | –
CC(=O)N[C@@H](CS)C(=O)O [n-acetyl-cysteine] | – | completely prevented lung injury | completely prevented | prevents | prevents ROS generation

Reference: patent US20120039888A1, “Methods Of Inhibiting Inflammation-Associated Tissue Damage By Inhibiting Neutrophil Activity” (priority 2008, published 2012)
